Target: T1, human σ1 receptor (Homo sapiens, UniProt Q99720)
T1 construct: expressed in transfected cells; host or cells: HEK-293 (membranes)
Assay: Human σ1 receptor radioligand assay
Assay type: binding
Details: transfected HEK-293 membranes, 5 nM [3H](+)-pentazocine as radioligand
Procedure: Human σ1 Receptor Radioligand Assay
To investigate binding properties of test compounds to human σ1 receptor, transfected HEK-293 membranes and [^3H](+)-pentazocine (Perkin Elmer, NET-1056), as the radioligand, were used. The assay was carried out with 7 μg of membrane suspension, 5 nM of [^3H](+)-pentazocine in either absence or presence of either buffer or 10 μM Haloperidol for total and non-specific binding, respectively. Binding buffer contained Tris-HCl 50 mM at pH 8. Plates were incubated at 37° C. for 120 minutes. After the incubation period, the reaction mix was then transferred to Multiscreen HTS, FC plates (Millipore), filtered and plates were washed 3 times with ice-cold 10 mM Tris-HCL (pH7.4). Filters were dried and counted at approximately 40% efficiency in a MicroBeta scintillation counter (Perkin-Elmer) using EcoScint liquid scintillation cocktail

T1 sequence (Q99720 whole entry): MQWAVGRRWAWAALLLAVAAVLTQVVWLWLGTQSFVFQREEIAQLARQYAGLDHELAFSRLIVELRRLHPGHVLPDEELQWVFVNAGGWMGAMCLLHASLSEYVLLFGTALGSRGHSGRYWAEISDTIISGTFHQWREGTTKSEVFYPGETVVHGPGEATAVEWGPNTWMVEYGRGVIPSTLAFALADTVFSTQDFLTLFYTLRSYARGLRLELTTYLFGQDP

Going from `CCN1C[C@]2(CC[C@@H](NCc3ccccc3)CC2)OC(C)(C)C1=O` [Example 40, (6r,9r)-9-(benzylamino)-4-ethyl-2,2-dimethyl-1-oxa-4-azaspiro[5.5]undecan-3-one] to `CCN1C[C@]2(CC[C@H](N(C)Cc3ccccc3)CC2)OC(C)(C)C1=O` [Example 43, (6s,9s)-9-(benzyl(methyl)amino)-4-ethyl-2,2-dimethyl-1-oxa-4-azaspiro[5.5]undecan-3-one], the Ki falls from at least 500 nM to under 100 nM. The second binds more tightly here.

`CCN1C[C@]2(CC[C@H](N(C)Cc3ccccc3)CC2)OCC1=O` [Example 41, (6s,9s)-9-(benzyl(methyl)amino)-4-ethyl-1-oxa-4-azaspiro[5.5]undecan-3-one] and `CCN1C[C@]2(CC[C@@H](N(C)Cc3ccccc3)CC2)OCC1=O` [Example 42, (6r,9r)-9-(benzyl(methyl)amino)-4-ethyl-1-oxa-4-azaspiro[5.5]undecan-3-one] cannot be ordered by Ki: under 500 nM for the first, under 100 nM for the second.

`CCN1C[C@]2(CC[C@@H](N(C)Cc3ccccc3)CC2)OC(C)(C)C1=O` [Example 44, (6r,9r)-9-(benzyl(methyl)amino)-4-ethyl-2,2-dimethyl-1-oxa-4-azaspiro[5.5]undecan-3-one] and `CCN1C[C@]2(CC[C@H](N(C)CCc3ccccc3)CC2)OC(C)(C)C1=O` [Example 55, (6s,9s)-4-ethyl-2,2-dimethyl-9-(methyl(phenethyl)amino)-1-oxa-4-azaspiro[5.5]undecan-3-one] cannot be ordered by Ki: under 500 nM for the first, under 100 nM for the second.

`CN(Cc1ccccc1)[C@H]1CC[C@@]2(CC1)CN(C(=O)c1ccccc1)CC1(CC1)O2` [Example 45, ((5s,8s)-8-[Benzyl(methyl)amino]-4-oxa-12-azadispiro[2.1.5.3]tridecan-12-yl)(phenyl)methanone] and `CN(Cc1ccccc1)[C@H]1CC[C@]2(CC1)CN(C(=O)c1ccccc1)CC1(CC1)O2` [Example 46, ((5r,8r)-8-[Benzyl(methyl)amino]-4-oxa-12-azadispiro[2.1.5.3]tridecan-12-yl)(phenyl)methanone] cannot be ordered by Ki: under 100 nM for the first, under 500 nM for the second.

`CCN1C[C@]2(CC[C@H](NC)CC2)OCC1=O` [Example 47, (6s,9s)-4-ethyl-9-(methylamino)-1-oxa-4-azaspiro[5.5]undecan-3-one acetate] and `CCN1C[C@]2(CC[C@H](NC)CC2)OC(C)(C)C1=O` [Example 48, (6s,9s)-4-ethyl-2,2-dimethyl-9-(methylamino)-1-oxa-4-azaspiro[5.5]undecan-3-one acetate] cannot be ordered by Ki: at least 500 nM for the first, at least 500 nM for the second.

`CCN1C[C@]2(CC[C@@H](NC)CC2)OC(C)(C)C1=O` [Example 49, (6r,9r)-4-ethyl-2,2-dimethyl-9-(methylamino)-1-oxa-4-azaspiro[5.5]undecan-3-one acetate] and `CCN1C[C@]2(CC[C@H](N(C)CC(C)C)CC2)OC(C)(C)C1=O` [Example 54, (6s,9s)-4-ethyl-9-(isobutyl(methyl)amino)-2,2-dimethyl-1-oxa-4-azaspiro[5.5]undecan-3-one] cannot be ordered by Ki: at least 500 nM for the first, under 500 nM for the second.

`CN[C@H]1CC[C@@]2(CC1)CN(C(=O)c1ccccc1)CC1(CC1)O2` [Example 50, ((5s,8s)-8-(methylamino)-4-oxa-12-azadispiro[2.1.5.3]tridecan-12-yl)(phenyl)methanone acetate] and `CC(C)CN(C)[C@H]1CC[C@@]2(CC1)CN(C(=O)c1ccccc1)CC1(CC1)O2` [Example 60, ((5s,8s)-8-[isobutyl(methyl)amino]-4-oxa-12-azadispiro[2.1.5.3]tridecan-12-yl)(phenyl)methanone] cannot be ordered by Ki: at least 500 nM for the first, under 500 nM for the second.

`CCN1C[C@]2(CC[C@H](N(C)CCc3ccccc3)CC2)OCC1=O` [Example 51, (6s,9s)-4-ethyl-9-(methyl(phenethyl)amino)-1-oxa-4-azaspiro[5.5]undecan-3-one] and `CCN1C[C@]2(CC[C@@H](N(C)CCc3ccccc3)CC2)OC(C)(C)C1=O` [Example 56, (6r,9r)-4-ethyl-2,2-dimethyl-9-(methyl(phenethyl)amino)-1-oxa-4-azaspiro[5.5]undecan-3-one] cannot be ordered by Ki: under 500 nM for the first, under 100 nM for the second.

`CCN1C[C@]2(CC[C@H](N(C)CCC(C)C)CC2)OCC1=O` [Example 52, (6s,9s)-4-ethyl-9-(isopentyl(methyl)amino)-1-oxa-4-azaspiro[5.5]undecan-3-one] and `CCN1C[C@]2(CC[C@H](N(C)CCC(C)C)CC2)OC(C)(C)C1=O` [Example 53, (6s,9s)-4-ethyl-9-(isopentyl(methyl)amino)-2,2-dimethyl-1-oxa-4-azaspiro[5.5]undecan-3-one] cannot be ordered by Ki: under 500 nM for the first, under 500 nM for the second.

`CCN1C[C@]2(CC[C@@H](N(C)CCC(C)C)CC2)OC(C)(C)C1=O` [Example 57, (6r,9r)-4-ethyl-9-(isopentyl(methyl)amino)-2,2-dimethyl-1-oxa-4-azaspiro[5.5]undecan-3-one] and `CCN1CC(C)(C)O[C@]2(CC[C@@H](N(C)CCC(C)C)CC2)C1` [Example 64, (6s,9s)-4-ethyl-N-isopentyl-N,2,2-trimethyl-1-oxa-4-azaspiro[5.5]undecan-9-amine] cannot be ordered by Ki: under 100 nM for the first, under 100 nM for the second.

`CN(CCc1ccccc1)[C@H]1CC[C@@]2(CC1)CN(C(=O)c1ccccc1)CC1(CC1)O2` [Example 58, ((5s,8s)-8-[methyl(phenethyl)amino]-4-oxa-12-azadispiro[2.1.5.3]tridecan-12-yl)(phenyl)methanone] and `CN(CCc1ccccc1)[C@H]1CC[C@@]2(CC1)CN(Cc1ccccc1)CC1(CC1)O2` [Example 67, (5s,8s)-12-benzyl-N-methyl-N-(2-phenylethyl)-4-oxa-12-azadispiro[2.1.5.3]tridecan-8-amine] cannot be ordered by Ki: under 500 nM for the first, under 100 nM for the second.

`CC(C)CCN(C)[C@H]1CC[C@@]2(CC1)CN(C(=O)c1ccccc1)CC1(CC1)O2` [Example 59, ((5s,8s)-8-[isopentyl(methyl)amino]-4-oxa-12-azadispiro[2.1.5.3]tridecan-12-yl)(phenyl)methanone] and `CC(C)CN(C)[C@H]1CC[C@@]2(CC1)CN(Cc1ccccc1)CC1(CC1)O2` [Example 68, (5s,8s)-12-benzyl-N-isobutyl-N-methyl-4-oxa-12-azadispiro[2.1.5.3]tridecan-8-amine] cannot be ordered by Ki: under 500 nM for the first, under 100 nM for the second.

`CCN1CCO[C@]2(CC[C@@H](N(C)CCc3ccccc3)CC2)C1` [Example 61, (6s,9s)-4-ethyl-N-methyl-N-phenethyl-1-oxa-4-azaspiro[5.5]undecan-9-amine] and `CCN1CC(C)(C)O[C@]2(CC[C@@H](N(C)CCc3ccccc3)CC2)C1` [Example 66, (6s,9s)-4-ethyl-N,2,2-trimethyl-N-phenethyl-1-oxa-4-azaspiro[5.5]undecan-9-amine] cannot be ordered by Ki: under 100 nM for the first, under 100 nM for the second.

`CCN1CC(C)(C)O[C@]2(CC[C@@H](N(C)Cc3ccccc3)CC2)C1` [Example 62, (6s,9s)-N-benzyl-4-ethyl-N,2,2-trimethyl-1-oxa-4-azaspiro[5.5]undecan-9-amine] and `CCN1CC(C)(C)O[C@]2(CC[C@@H](N(C)CC(C)C)CC2)C1` [Example 65, (6s,9s)-4-ethyl-N-isobutyl-N,2,2-trimethyl-1-oxa-4-azaspiro[5.5]undecan-9-amine] cannot be ordered by Ki: under 100 nM for the first, under 100 nM for the second.

With `CCN1CCO[C@]2(CC[C@@H](N(C)CCC(C)C)CC2)C1` [Example 63, (6s,9s)-4-ethyl-N-isopentyl-N-methyl-1-oxa-4-azaspiro[5.5]undecan-9-amine] the Ki was under 500 nM.

Target: sigma-2 (σ2) site (Homo sapiens, UniProt Q5BJF2)
Sequence (Q5BJF2 whole entry): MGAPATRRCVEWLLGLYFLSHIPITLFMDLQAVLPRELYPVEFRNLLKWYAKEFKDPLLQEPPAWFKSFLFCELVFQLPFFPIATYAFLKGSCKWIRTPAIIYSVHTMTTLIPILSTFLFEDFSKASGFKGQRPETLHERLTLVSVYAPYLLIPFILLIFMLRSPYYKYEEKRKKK
Assay: not given
Details: result in words, background; cited from earlier work

In the case of (+)SKF-10047, the “affinity for the sigma-2 (σ2) site” value is listed as “micromolar affinity”.
